Experimental data: article PMC3894633 (Biochemistry, 2013)
Like-named read-outs stand apart in the source and are kept apart here.

Key:
mycobacterial Lpd (mLpd) = biological target: T1, mycobacterial Lpd (mLpd) (Mycobacterium tuberculosis, UniProt P9WHH9); format: biochemical
T1 sequence (P9WHH9 1-464): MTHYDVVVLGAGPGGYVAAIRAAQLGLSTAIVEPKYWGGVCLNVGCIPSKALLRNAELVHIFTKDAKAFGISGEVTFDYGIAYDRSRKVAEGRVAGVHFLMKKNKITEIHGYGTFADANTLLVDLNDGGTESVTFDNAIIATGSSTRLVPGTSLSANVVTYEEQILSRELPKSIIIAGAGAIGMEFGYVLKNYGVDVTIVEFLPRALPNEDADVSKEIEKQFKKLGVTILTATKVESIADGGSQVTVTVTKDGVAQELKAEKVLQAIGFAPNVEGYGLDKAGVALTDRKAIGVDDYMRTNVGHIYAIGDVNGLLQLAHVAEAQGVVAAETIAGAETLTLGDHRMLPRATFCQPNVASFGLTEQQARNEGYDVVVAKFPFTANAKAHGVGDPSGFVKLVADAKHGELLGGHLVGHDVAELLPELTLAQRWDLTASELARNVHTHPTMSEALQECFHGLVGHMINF

[1] = test system: M. tuberculosis ΔpanCDΔlysA; format: cell-based; details: for Growth inhibition of M. tuberculosis ΔpanCDΔlysA: 7 days in culture, tested up to 100 μM, inhibition only at 100 μM
human Lpd (hLpd) = biological target: T2, human Lpd (hLpd) (Homo sapiens, UniProt P09622); assay: Human Lpd inhibition, DTNB assay with 10 μM lipoamide; format: biochemical; details: highest concentration tested 100 μM
T2 sequence (P09622 36-509): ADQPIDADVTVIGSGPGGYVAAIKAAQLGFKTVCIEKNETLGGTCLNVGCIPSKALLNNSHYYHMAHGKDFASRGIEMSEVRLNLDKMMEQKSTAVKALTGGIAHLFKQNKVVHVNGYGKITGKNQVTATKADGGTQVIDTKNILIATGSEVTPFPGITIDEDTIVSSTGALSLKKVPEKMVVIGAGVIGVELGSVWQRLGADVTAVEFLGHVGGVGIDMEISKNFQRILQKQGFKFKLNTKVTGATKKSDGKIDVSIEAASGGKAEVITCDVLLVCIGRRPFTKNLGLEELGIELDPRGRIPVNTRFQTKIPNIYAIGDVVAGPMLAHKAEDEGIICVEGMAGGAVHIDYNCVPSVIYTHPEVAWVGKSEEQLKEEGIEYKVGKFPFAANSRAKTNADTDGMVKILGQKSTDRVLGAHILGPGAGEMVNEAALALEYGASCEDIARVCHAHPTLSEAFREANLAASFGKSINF

M. bovis BCG = format: cell-based
M. tuberculosis H37Rv = assay: Metabolic profiling of Mtb intracellular metabolites; format: cell-based, Mycobacterium tuberculosis; details: Mtb exposed to 75 μM
Mtb = details: ref [20]; cited from earlier work

CCN(Cc1ccccc1)C(=O)CN(C)S(=O)(=O)c1cc(Br)cnc1N [E114-0951]
Loss of potency (mycobacterial Lpd (mLpd)): 100 fold

CN(Cc1ccccc1)C(=O)CN(C)S(=O)(=O)c1cc(Br)cnc1N [E144-0828]
Loss of potency (mycobacterial Lpd (mLpd)): 100 fold

Nc1ncc(Br)cc1S(=O)(=O)NCCC(=O)Nc1cccc(Cl)c1 [K906-3123]
Loss of potency (mycobacterial Lpd (mLpd)): even greater loss of potency

CN(CC(=O)Nc1ccc(F)c(Cl)c1)S(=O)(=O)c1cc(Br)cnc1N [SL418]
Growth inhibition of M. tuberculosis ΔpanCDΔlysA [1]: No growth inhibition
Inhibition of hLpd (human Lpd (hLpd)): did not inhibit
Growth inhibition of M. bovis BCG (M. bovis BCG; 7 days in culture, tested up to 100 μM, inhibition only at 100 μM): No growth inhibition

COc1ccc(NC(=O)CN(C)S(=O)(=O)c2cc(Br)cnc2N)cc1 [SL827, 2-(2-amino-5-bromo-N-methylpyridine-3-sulfonamido)-N-(4-methoxyphenyl)acetamide]
Changes in alanine, valine and leucine levels (M. tuberculosis H37Rv): no changes
Growth inhibition of M. tuberculosis ΔpanCDΔlysA [1]: No growth inhibition
Inhibition of hLpd (human Lpd (hLpd)): did not inhibit
Growth inhibition of M. bovis BCG (M. bovis BCG): No growth inhibition

Cc1cc(NS(=O)(=O)c2ccc(N)cc2)no1 [Sulfamethoxazole]
Growth inhibitory effect on Mtb (Mtb): little or no growth inhibitory effect

COC(=O)[C@H]1[C@H]2C[C@@H]3c4[nH]c5cc(OC)ccc5c4CCN3C[C@H]2C[C@@H](OC(=O)c2cc(OC)c(OC)c(OC)c2)[C@@H]1OC [reserpine, reference compound]
Growth inhibitory effect on Mtb on its own ([1]; 25 μM): no growth inhibitory effect

Nc1ccc(S(N)(=O)=O)cc1 [sulfanilamide]
Growth inhibitory effect on Mtb (Mtb): little or no growth inhibitory effect

COc1ccc(CCN(C)CCCC(C#N)(c2ccc(OC)c(OC)c2)C(C)C)cc1OC (centres unmarked) [verapamil, reference compound]
Growth inhibitory effect on Mtb on its own ([1]; 50 μM): no growth inhibitory effect
